US20240010726A1, “LFA-1 SIGNALLING MEDIATOR FOR USE IN CANCER THERAPY” (Universität Basel, priority 2020, published 2024)

Legend:
[1] = target: T1, LFA-1 (Homo sapiens, UniProt P05107+P20701); assay: Flow cytometry of LFA-1 open head-piece (mAb m24) on EM and naïve CD8 T cells; assay type: cell-based
T1 construct: endogenous in cells; host or cells: primary human T cells from healthy donors: PHA-induced T cell blasts, sorted EM and naive CD8 T cells, and NY-ESO-1 TCR-transduced REP T cells
Description: FIG. 2: Extracellular magnesium promotes memory-specific activation via LFA-1. Glycolytic switch of human EM CD8 T cells (a) and naïve CD8 T cells (b) subsets upon injection of anti-CD3 Ab only, or anti-CD3 and anti-CD28 Ab, was assessed by metabolic flux analysis in medium containing either 1.2 mM Mg^2+, 0 mM Mg^2+, or medium which was reconstituted from 0 mM to 1.2 mM Mg^2+ immediately prior to activation (0→1.2 mM Mg^2+). (a) Results for human effector memory (EM) and (b) for human naïve CD8 T cells. Glycolytic switch was quantified by subtracting […] measurements. (c) Flow cytometric analysis of surface activation markers on human EM CD8 T cells 24 hours after activation by plate-bound anti-CD3 Ab and soluble anti-CD28 Ab, in 1.2 mM and 0 mM Mg^2+ media, respectively. (d) Abundance of inflammatory cytokines in corresponding EM CD8 T cell culture supernatants, determined by CBA. (e) CD11a (LFA-1) surface expression on human naïve and EM CD8 T cells as well PHA T cell blasts. Flow cytometry-based assessment of total LFA-1 expression assessed by mAb TS2/4 (f), closed conformation of αL by mAb HI111 (g), extended conformation of LFA-1 by mAb Kim127 (h), open head-piece conformation of LFA-1 by mAb m24 (i), phosphorylation of focal adhesion kinase (FAK) […] as well TNF expression (k)±TCR-induced activation in different extracellular Mg^2+ concentrations. […]

[2] = system: luciferase-expressing EL4 target cells; assay: Cytotoxicity assay of WT and LFA-1−/− OT1 CTLs with luciferase-expressing EL4 target cells; assay type: cell-based, murine; details: EL4 pulsed with altered OVA peptides (G4, H7, R7) at 10^−6 M; 4 h; E:T 3:1; 1.2 mM or 0 mM Mg^2+
Description: FIG. 4: Magnesium regulates LFA-1 mediated T cell activation and cytotoxicity within physiologic range • (a) Metabolic flux analysis of human EM CD8 T cells upon supra-physiologic activation with anti-CD3 and anti-CD28 Ab, and additional injection of secondary, cross-linking anti-CD3/28 Ab, in medium containing 1.2 mM Mg^2+, 0 mM Mg^2+, or medium which was reconstituted to 1.2 mM Mg^2+ immediately prior to activation (0→1.2 mM Mg^2+). Pooled results from n=6 healthy donors from 3 independent experiments. (b) CD69 expression of PHA T cell blasts upon activation with indicated concentrations of plate-bound anti-CD3 mAb in ±Mg^2+ containing medium. […] Cytotoxicity was quantified after adding luciferin to medium and measuring luminescent signal intensity. […] Cytotoxicity was quantified after adding luciferin to medium and measuring luminescent signal intensity. […]
OT-I derived CTLs were stimulated with OVA257-264 peptide ([…], Eurogentec) or the altered peptide ligands R7 ([…], Eurogentec), H7 ([…], Eurogentec) or G4 ([…], Eurogentec) at 10 μM for 4 h. […] Cytotoxicity was either evaluated with fluorogenic caspase-3 substrate (as described above) or luciferase-expressing EL4 target cells. Cytotoxicity was quantified after adding luciferin at 0.15 mg ml^−1 (PerkinElmer) to medium and measuring luminescent signal intensity by plate reader (Synergy H1, BioTek).

T1 sequence (P20701 26-1170): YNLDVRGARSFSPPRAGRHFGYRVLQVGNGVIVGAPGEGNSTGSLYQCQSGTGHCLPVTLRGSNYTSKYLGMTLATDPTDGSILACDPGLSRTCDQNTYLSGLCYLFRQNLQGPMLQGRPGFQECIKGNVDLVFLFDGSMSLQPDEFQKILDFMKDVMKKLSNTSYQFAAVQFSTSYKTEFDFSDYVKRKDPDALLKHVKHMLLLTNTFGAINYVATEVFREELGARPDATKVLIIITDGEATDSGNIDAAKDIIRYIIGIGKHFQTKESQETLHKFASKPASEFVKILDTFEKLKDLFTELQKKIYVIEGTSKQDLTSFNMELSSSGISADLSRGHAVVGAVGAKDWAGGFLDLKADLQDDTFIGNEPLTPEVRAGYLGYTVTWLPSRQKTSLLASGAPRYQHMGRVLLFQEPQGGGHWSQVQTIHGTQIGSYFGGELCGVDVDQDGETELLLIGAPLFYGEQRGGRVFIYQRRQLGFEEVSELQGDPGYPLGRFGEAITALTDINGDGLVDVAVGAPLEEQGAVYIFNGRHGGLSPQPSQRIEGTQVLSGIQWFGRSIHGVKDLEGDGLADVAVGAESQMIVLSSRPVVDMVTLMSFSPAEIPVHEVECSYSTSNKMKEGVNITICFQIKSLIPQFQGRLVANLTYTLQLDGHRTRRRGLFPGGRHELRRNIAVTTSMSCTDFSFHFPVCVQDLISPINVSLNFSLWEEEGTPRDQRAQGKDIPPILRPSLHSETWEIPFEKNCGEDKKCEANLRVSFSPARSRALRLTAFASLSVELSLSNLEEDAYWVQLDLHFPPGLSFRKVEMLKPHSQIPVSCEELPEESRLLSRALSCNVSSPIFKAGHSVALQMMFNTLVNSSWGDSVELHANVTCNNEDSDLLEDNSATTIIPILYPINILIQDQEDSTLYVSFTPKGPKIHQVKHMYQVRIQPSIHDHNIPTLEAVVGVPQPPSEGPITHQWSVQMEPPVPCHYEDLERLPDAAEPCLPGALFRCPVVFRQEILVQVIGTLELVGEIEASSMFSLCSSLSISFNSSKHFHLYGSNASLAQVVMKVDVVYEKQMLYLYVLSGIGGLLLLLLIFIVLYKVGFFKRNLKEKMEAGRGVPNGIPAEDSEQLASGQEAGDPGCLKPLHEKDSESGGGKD
T1 sequence (P05107 23-769): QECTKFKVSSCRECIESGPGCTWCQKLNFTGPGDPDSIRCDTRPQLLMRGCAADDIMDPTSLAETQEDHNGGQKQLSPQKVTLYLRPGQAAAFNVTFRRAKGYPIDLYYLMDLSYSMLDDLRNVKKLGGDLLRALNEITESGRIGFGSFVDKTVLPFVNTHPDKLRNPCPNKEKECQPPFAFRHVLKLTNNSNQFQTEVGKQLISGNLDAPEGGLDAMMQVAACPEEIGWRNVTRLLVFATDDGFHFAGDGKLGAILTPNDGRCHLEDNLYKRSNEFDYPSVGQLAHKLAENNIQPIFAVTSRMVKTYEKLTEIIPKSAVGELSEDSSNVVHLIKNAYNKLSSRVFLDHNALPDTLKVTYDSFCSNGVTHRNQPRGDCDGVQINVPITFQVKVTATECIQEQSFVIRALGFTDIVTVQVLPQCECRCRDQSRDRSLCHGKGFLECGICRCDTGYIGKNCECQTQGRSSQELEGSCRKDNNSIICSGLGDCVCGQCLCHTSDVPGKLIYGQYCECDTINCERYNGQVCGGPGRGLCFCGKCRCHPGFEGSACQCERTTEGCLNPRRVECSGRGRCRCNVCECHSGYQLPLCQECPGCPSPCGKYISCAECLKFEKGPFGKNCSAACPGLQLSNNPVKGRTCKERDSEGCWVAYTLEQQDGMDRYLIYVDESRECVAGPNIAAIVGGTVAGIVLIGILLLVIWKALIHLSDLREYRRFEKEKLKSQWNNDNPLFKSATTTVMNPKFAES

Structure (SMILES): [Mg+2] [Mg^2+, Magnesium]
- Activation induced LFA-1 head-piece opening (m24) on EM CD8 T cells ([1]; Mg^2+-restricted conditions vs Mg^2+): reduced activation induced LFA-1 head-piece opening
- Activation induced LFA-1 head-piece opening (m24) on naïve CD8 T cells ([1]; moderate TCR stimulation, ±Mg^2+): did not induce LFA-1 head-piece opening
- Specific target cell lysis by OT1 CTLs [2]: confirmed across a spectrum of TCR affinities
